According to ChEMBL document CHEMBL5032530, “Discovery of Benzocyclic Sulfone Derivatives as Potent CXCR2 Antagonists for Cancer Immunotherapy” (J Med Chem, 2021):
Calls of active or inactive are those of the source. The rule behind the calls is not given here.

Assays:
[1] = target: T1, C-X-C chemokine receptor type 2 (Homo sapiens, UniProt P25025); assay: Antagonist activity at human CXCR2 expressed in HEK293 cells assessed as inhibition of CXCL8-induced beta-arrestin recruitment preincubated for 30 mins followed by addition of agonist incubated for 90 mins by beta arrestin assay; type: functional, cell-based
T1 sequence (P25025 whole entry): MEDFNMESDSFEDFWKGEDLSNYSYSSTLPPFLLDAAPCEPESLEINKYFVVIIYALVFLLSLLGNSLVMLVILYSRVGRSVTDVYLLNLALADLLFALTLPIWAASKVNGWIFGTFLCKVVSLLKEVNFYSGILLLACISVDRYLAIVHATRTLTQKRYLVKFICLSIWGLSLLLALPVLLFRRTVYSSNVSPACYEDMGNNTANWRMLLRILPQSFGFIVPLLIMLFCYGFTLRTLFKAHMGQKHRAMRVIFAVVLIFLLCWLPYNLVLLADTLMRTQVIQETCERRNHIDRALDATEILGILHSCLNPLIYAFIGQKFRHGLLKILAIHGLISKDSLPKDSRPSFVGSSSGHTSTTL

[2] = Clearance in ICR mouse at 3 mg/kg, iv measured upto 48 hrs; type: ADME, organism-based; conditions: in vivo
[3] = AUC (0 to t) in ICR mouse at 30 mg/kg, po measured upto 48 hrs; type: ADME, organism-based; parameters: route oral, dose 30 mg/kg, time <=48; conditions: in vivo
[4] = Apparent volume of distribution in ICR mouse at 3 mg/kg, iv measured upto 48 hrs; type: ADME, organism-based; conditions: in vivo, read-out: Vz
[5] = Tmax in ICR mouse at 30 mg/kg, po measured upto 48 hrs; type: ADME, organism-based; conditions: in vivo
[6] = Apparent volume of distribution in ICR mouse at 30 mg/kg, po measured upto 48 hrs; type: ADME, organism-based; conditions: in vivo
[7] = AUC (0 to infinity) in ICR mouse at 30 mg/kg, po measured upto 48 hrs; type: ADME, organism-based; parameters: route oral, dose 30 mg/kg, time <=48; conditions: in vivo, 48 h
[8] = Cmax in ICR mouse at 3 mg/kg, iv measured upto 48 hrs; type: ADME, organism-based; parameters: route intravenous, dose 3 mg/kg, time <=48; conditions: in vivo
[9] = Half life in ICR mouse at 30 mg/kg, po measured upto 48 hrs; type: ADME, organism-based; conditions: in vivo, 30 mg/kg, 48 h
[10] = Clearance in ICR mouse at 30 mg/kg, po measured upto 48 hrs; type: ADME, organism-based; conditions: in vivo, 30 mg/kg, 48 h
[11] = Half life in ICR mouse at 3 mg/kg, iv measured upto 48 hrs; type: ADME, organism-based; conditions: in vivo
[12] = AUC (0 to infinity) in ICR mouse at 3 mg/kg, iv measured upto 48 hrs; type: ADME, organism-based; parameters: route intravenous, dose 3 mg/kg, time <=48; conditions: in vivo
[13] = Tmax in ICR mouse at 3 mg/kg, iv measured upto 48 hrs; type: ADME, organism-based; conditions: in vivo
Neutrophil = assay: In vivo antagonist activity at CXCR2 in carrageenan-induced C57BL/6 mouse air pouch inflammation model assessed as reduction in neutrophil infiltration into air pouch at 10 mg/kg, po bid administered after 3 days of carrageenan treatment for 3 days; type: functional, organism-based; conditions: time 3.0 day
[14] = Cmax in ICR mouse at 30 mg/kg, po measured upto 48 hrs; type: ADME, organism-based; parameters: route oral, dose 30 mg/kg, time <=48; conditions: in vivo
[15] = AUC (0 to t) in ICR mouse at 3 mg/kg, iv measured upto 48 hrs; type: ADME, organism-based; parameters: route intravenous, dose 3 mg/kg, time <=48; conditions: in vivo
[16] = Oral bioavailability in ICR mouse at 30 mg/kg measured upto 48 hrs; type: ADME, organism-based; conditions: in vivo

IC50 [1] | Structure (SMILES) | also measured
190 nM | Cc1ccc(NC(=O)Nc2ccc3c(c2O)S(=O)(=O)CC=C3)cc1 | 
9990 nM | O=c1c(Nc2ccc3c(c2O)S(=O)(=O)CCC3)c(Nc2cccc(Cl)c2Cl)c1=O | 
2430 nM | Cc1c(Cl)cccc1NC(=O)Nc1ccc2c(c1O)S(=O)(=O)CCC2 | 
66 nM | O=C(Nc1ccccc1Cl)Nc1ccc2c(c1O)S(=O)(=O)CC=C2 | 
150 nM | O=c1c(Nc2ccccc2Br)c(Nc2ccc3c(c2O)S(=O)(=O)CCC3)c1=O | 
370 nM | Cc1c(F)cccc1Nc1c(Nc2ccc3c(c2O)S(=O)(=O)CC=C3)c(=O)c1=O | 
420 nM | Cc1c(F)cccc1NC(=O)Nc1ccc2c(c1O)S(=O)(=O)CCC2=O | 
400 nM | O=C(Nc1ccc2c(c1O)S(=O)(=O)CCC2=O)Nc1cccc(Cl)c1Cl | 
130 nM | O=C(Nc1ccc2c(c1O)S(=O)(=O)CC=C2)Nc1cccc(Cl)c1Cl | 
2500 nM | O=c1c(Nc2ccc3c(c2O)S(=O)(=O)CC=C3)c(Nc2cccc(Cl)c2Cl)c1=O | 
1640 nM | Cc1c(Cl)cccc1NC(=O)Nc1ccc2c(c1O)S(=O)(=O)CC=C2 | 
13 nM | NS(=O)(=O)c1c(Cl)ccc(NC(=O)Nc2cccc(Cl)c2Cl)c1O | clearance [2]: 16.3 mL/min/kg; AUC(0-t) at 48 h [3]: 11100 ng·h/mL; Vd [4]: 5.07 L/kg; Tmax [5]: 18 min; Vz [6]: 14.09 L/kg; AUC [7]: 11072.08 ng·h/mL; Cmax [8]: 8350 ng/mL; t1/2 [9]: 215 min; CL [10]: 453.5 mL/min/kg; half-life [11]: 216 min; AUC(0-inf) [12]: 3160 ng·h/mL; Tmax [13]: 3.6 min; Activity (Neutrophil): Active; Cmax [14]: 3810 ng/mL; AUC(0-t) at 48 h [15]: 3160 ng·h/mL; bioavailability [16]: 35%
3450 nM | O=c1c(Nc2ccc3c(c2O)S(=O)(=O)CCC3)c(Nc2cccc(F)c2Cl)c1=O | 
49 nM | O=C(Nc1ccccc1Br)Nc1ccc2c(c1O)S(=O)(=O)CC=C2 | 
210 nM | O=C(Nc1ccccc1Cl)Nc1ccc2c(c1O)S(=O)(=O)CCC2 | 
1320 nM | Cc1ccc(NC(=O)Nc2ccc3c(c2O)S(=O)(=O)CCC3)cc1 | 
19000 nM | O=C(Nc1ccc2c(c1O)S(=O)(=O)CC=C2)Nc1cccc(F)c1Cl | 
